According to ChEMBL document CHEMBL3638678, “4-substituted-cyclohexylamino-4-piperidinyl-acetamide antagonists of CCR2” (2014):

Biological target: C-C chemokine receptor type 2 (Homo sapiens, UniProt P41597)
Assay: Binding Assay: MCP-1 Receptor Binding Assay in THP-1 Cells Human monocytic cell line THP-1 cells were obtained from American Type Culture Collection (Manassas, Va., USA). The THP-1 cells were grown in RPMI-1640 (RPMI: Roswell Park Memorial Institute Medium-cell culture growth media) supplemented with 10% fetal bovine serum in a humidified 5% CO2 atmosphere at 37 C. The cell density was maintained between 0.5x10^6 cells/mL.THP-1 (cells were incubated with 0.5 nM 125I labeled MCP-1 (Perkin-Elmer Life Sciences, Inc. Boston, Mass.) in the presence of varying concentrations of either unlabeled MCP-1 (R & D Systems, Minneapolis, Minn.) or test compound for 2 hours at 30 C. in a 96 well plate. Cells were then harvested onto a filter plate, dried, and 20 uL of Microscint 20 was added to each well. Plates were counted in a TopCount NXT, Microplate Scintillation & Luminescence Counter (Perkin-Elmer Life Sciences, Inc. Boston, Mass.).
Assay type: cell-based

Chain of C-C chemokine receptor type 2 (P41597 whole entry): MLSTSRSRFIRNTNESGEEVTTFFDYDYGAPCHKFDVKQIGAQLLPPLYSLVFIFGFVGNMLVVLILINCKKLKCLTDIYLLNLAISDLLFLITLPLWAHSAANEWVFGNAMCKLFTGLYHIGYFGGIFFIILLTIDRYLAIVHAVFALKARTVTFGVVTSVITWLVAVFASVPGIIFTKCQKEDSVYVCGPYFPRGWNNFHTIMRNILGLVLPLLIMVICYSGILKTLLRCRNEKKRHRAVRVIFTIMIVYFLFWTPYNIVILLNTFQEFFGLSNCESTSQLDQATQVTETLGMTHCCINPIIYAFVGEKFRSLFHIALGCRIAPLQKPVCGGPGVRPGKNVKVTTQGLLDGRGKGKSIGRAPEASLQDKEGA

IC50: 1.1 µM
SMILES: CC1(C)Cc2cc(/C=C/C(=O)N3CCC(C(NC4CCC(c5c[nH]c6ccccc56)CC4)C(N)=O)CC3)ccc2O1 (stereo unspecified)
